Key:
HPV 6/11 = assay: Drug screening by quantitative fluorescent PCR analysis of HPV 6/11 in condyloma acuminata homogenate; parameters: species or system human papillomavirus (HPV); settings: for HPV 6/11 Virus (copies/ml): 50 μl 10% micro emulsion + 50 μl HPV sample homogenate, 37° C., 24 hours, saline control 1.45 × 10^6; for HPV 6/11 detected by FQ-PCR (in words): 24 hours after adding the test compound
HPV 16/18 = assay: Drug screening by quantitative fluorescent PCR analysis of HPV 16/18 in condyloma acuminata homogenate; parameters: species or system human papillomavirus (HPV); settings: for HPV 16/18 Virus (copies/ml): 50 μl 10% micro emulsion + 50 μl HPV sample homogenate, 37° C., 24 hours, saline control 1.40 × 10^5; for HPV 16/18 detected by FQ-PCR (in words): 24 hours after adding the test compound
condyloma acuminata = assay: Clinical use in treating condyloma acuminata; type: in vivo, human; settings: for treatment effect compared to recombinant human interferon α-2β gel: condyloma acuminata patients, 10% micro emulsion
Text: Soft hyperplasia with nipple or cauliflower shaped or other shaped warts were found around the skin of the cunnus or anus. The result from 5% acetate acid white test was positive.
Patients selected for the clinical observation must meet the above standards. Plus the diameter of their skin lesions should equal to or be less than 1 cm. […] Patients who had vaginal yeast, trichomonas, bacteria infection or other complications, chronic diseases, serious liver or kidney diseases or women in pregnancy or lactation were not selected. Treatments to women would not be conducted in their menstrual periods.
50 qualified patients were selected and randomly divided into five groups to be tested with p-hydroxybenzoic acid, gallic acid, ethyl p-hydroxybenzoate, propyl gallate and recombinant human interferon α-2β gel, respectively. The samples of p-hydroxybenzoic acid, gallic acid, ethyl p-hydroxybenzoate and propyl gallate were prepared as described in Example 1. The patients were treated with the test sample to the affected areas three times a day, in the morning, at noon and night. The samples were applied to cover the warts and the patients were required to leave the treated areas exposed and not to move for 20 minutes.
Observation time: 8 days. Patients not cured after 8 days would continue to use the test samples for another 12 weeks, and their prognosis was followed during the 12-week period.
Observed items: the location, shape, size and number of warts were carefully observed and recorded before the treatment.
“Recovered”: all skin lesions had disappeared;
“Obvious Effect”: more than 70% of the skin lesions had disappeared;
“Improved”: more than 30% of the skin lesions had disappeared;
“Not Effective”: less than 30% of the skin lesions had disappeared or the original skin lesions didn't change or even enlarged.

[1] = tested on: secretion of HBsAg by 2.2.15 cells; assay: Inhibition of secretion of HBsAg by Hepatitis B 2.2.15 cell line; type: cell-based, HBV; settings: 1 μmol/ml; for HBsAg Inhibition rate: 2.2.15 cells, supernatant collected three days later
Text: (§1) Hepatitis B 2.2.15 cell line was transfected by HBV DNA (purchased from Institute of Biochemistry and Cell Biology of Shanghai Institute for Biological Sciences or the National Center for Drug Screening) and used as the cell model for screening anti-HBV drug compounds (See Chinese Journal Of Integrated Traditional and Western Medicine on Liver Diseases, 2004, 14(3): 158). The cell culture medium DMEM (GIBCO Company), bovine serum (Hangzhou Siji Qing Biochemical Manufacturer), G418 (GIBCO Company), 3-(4,5-dimethylthiazol-2-yl)-2,5-diphenyltetrazoliumbromide (Sigma), HBsAg and HBeAg diagnostic kit (Shanghai Kehua Bio-engineering Co., Ltd).
(§2) The test compounds listed in Table 3 below were dissolved in a mixture containing 20 ml 1,2-propylene glycol and 15 ml Tween-80 and diluted with sterile saline water to 2 μmol/ml of the test compound. Then it was mixed with the cell culture medium at equal volume to obtain a solution containing 1 μmol/ml of the tested compound. Cells at the concentration of 1×10^5 cells per milliliter were inoculated to a 24-well plate at 1 ml/well. Supernatant from the cell culture mixture was collected three days later for testing.

[2] = tested on: secretion of HBeAg by 2.2.15 cells; assay: Inhibition of secretion of HBeAg by Hepatitis B 2.2.15 cell line; type: cell-based, HBV; settings: 1 μmol/ml; for HBeAg Inhibition Rate: 2.2.15 cells, supernatant collected three days later
Text: as §1, §2

[3] = number of patients, more than 70% of the skin lesions disappeared

| Compound | HPV 6/11 Virus (copies/ml) (HPV 6/11) | HPV 16/18 Virus (copies/ml) (HPV 16/18) | HPV 16/18 detected by FQ-PCR (in words) (HPV 16/18) | further results |
| --- | --- | --- | --- | --- |
| CCCCCCCCOC(=O)c1cccc(O)c1O [Octyl 2,3-dihydroxybenzoate] | 2.20 × 10^2 copies/ml | 1.50 × 10^2 copies/ml | – | – |
| COC(=O)c1cccc(O)c1O [Methyl 2,3-dihydroxybenzoate] | 3.00 × 10^4 copies/ml | 4.20 × 10^2 copies/ml | – | – |
| O=C(O)c1cccc(O)c1O [2,3-dihydroxybenzoic acid] | 2.30 × 10^4 copies/ml | 3.20 × 10^3 copies/ml | – | – |
| COC(=O)c1ccc(O)c(O)c1O [Methyl 2,3,4-trihydroxybenzoate] | 0 copies/ml | 0 copies/ml | no HPV 6/11 or HPV 16/18 was detected | HPV 6/11 detected by FQ-PCR (in words) (HPV 6/11): no HPV 6/11 or HPV 16/18 was detected |
| CCCCCCCCCCCCOC(=O)c1cc(O)c(O)c(O)c1 [dodecyl gallate, Dodecyl gallate] | 6.70 × 10^4 copies/ml | 4.90 × 10^4 copies/ml | – | – |
| CCCCCCCCOC(=O)c1cc(O)c(O)c(O)c1 [Octyl gallate] | 0 copies/ml | 0 copies/ml | no HPV 6/11 or HPV 16/18 was detected | HPV 6/11 detected by FQ-PCR (in words) (HPV 6/11): no HPV 6/11 or HPV 16/18 was detected |
| O=C(O)c1ccc(O)cc1 [p-hydroxybenzoic acid] | 7.00 × 10^5 copies/ml | 1.30 × 10^3 copies/ml | – | treatment effect compared to recombinant human interferon α-2β gel (condyloma acuminata): more apparent treatment effect; Not Effective (condyloma acuminata; number of patients, less than 30% of the skin lesions disappeared, observation 8 days): 3; Improved (condyloma acuminata; number of patients, more than 30% of the skin lesions disappeared, observation 8 days): 2; Obvious Effect, 5-8 days (condyloma acuminata; [3]): 5 |
| O=C(O)c1ccc(O)c(O)c1O [2,3,4-trihydroxybenzoic acid] | 0 copies/ml | 0 copies/ml | no HPV 6/11 or HPV 16/18 was detected | HPV 6/11 detected by FQ-PCR (in words) (HPV 6/11): no HPV 6/11 or HPV 16/18 was detected |
| O=C(O)c1ccc(O)c(Br)c1 [3-bromo-4-hydroxybenzoic acid] | 3.40 × 10^3 copies/ml | 5.00 × 10^4 copies/ml | – | – |
| CCOC(=O)c1ccc(O)c(O)c1 [Ethyl 3,4-dihydroxybenzoate] | – | – | – | effect on the secretion of HBsAg by the 2.2.15 cells (in words) [1]: had inhibition effect; inhibition of HBsAg secretion compared with gallic acid and 3,4-dihydroxybenzoic acid [1]: more effective; HBsAg Inhibition rate [1]: 14.20%; effect on the secretion of HBeAg by the 2.2.15 cells (in words) [2]: had inhibition effect; inhibition of HBeAg secretion compared with gallic acid and 3,4-dihydroxybenzoic acid [2]: more effective; HBeAg Inhibition Rate [2]: 6.04% |
| O=C(O)c1ccccc1 [Benzoic acid, benzoic acid] | 3.60 × 10^5 copies/ml | 2.90 × 10^4 copies/ml | – | – |
| CCOC(=O)c1ccc(O)cc1 [Ethyl p-hydroxybenzoate] | 8.50 × 10^4 copies/ml | 0 copies/ml | not detected | treatment effect compared to recombinant human interferon α-2β gel (condyloma acuminata): more apparent treatment effect; Recovered, 1-4 days (condyloma acuminata; number of patients (50 patients in five groups), 10% micro emulsion on affected areas three times a day, all skin lesions disappeared): 6; Recovered, 5-8 days (condyloma acuminata; number of patients, 10% micro emulsion three times a day, all skin lesions disappeared): 2; Obvious Effect, 1-4 days (condyloma acuminata; [3]): 2 |
| O=C(O)c1ccc(O)c(O)c1 [3,4-dihydroxybenzoic acid] | 1.90 × 10^4 copies/ml | 8.50 × 10^4 copies/ml | – | effect on the secretion of HBsAg by the 2.2.15 cells (in words) [1]: had inhibition effect; HBsAg Inhibition rate [1]: 9.81%; effect on the secretion of HBeAg by the 2.2.15 cells (in words) [2]: had inhibition effect; HBeAg Inhibition Rate [2]: 8.92% |
| COC(=O)c1ccc(O)cc1O [Methyl 2,4-dihydroxybenzoate] | 5.20 × 10^4 copies/ml | 2.50 × 10^2 copies/ml | – | – |
| O=C(O)c1cc(Cl)c(O)c(Cl)c1 [3,5-dicloro-4-hydroxybenzoic acid] | 2.30 × 10^3 copies/ml | 2.60 × 10^4 copies/ml | – | – |
| CCCOC(=O)c1ccc(O)c(O)c1O [Propyl 2,3,4-trihydroxybenzoate] | 0 copies/ml | 0 copies/ml | no HPV 6/11 or HPV 16/18 was detected | HPV 6/11 detected by FQ-PCR (in words) (HPV 6/11): no HPV 6/11 or HPV 16/18 was detected |
| COC(=O)c1cc(O)c(O)c(O)c1 [Methyl gallate] | 0 copies/ml | 0 copies/ml | no HPV 6/11 or HPV 16/18 was detected | HPV 6/11 detected by FQ-PCR (in words) (HPV 6/11): no HPV 6/11 or HPV 16/18 was detected |
| COC(=O)c1ccc(O)c(O)c1 [Methyl 3,4-dihydroxybenzoate] | 8.50 × 10^4 copies/ml | 6.00 × 10^2 copies/ml | – | – |
| CCOC(=O)c1cc(O)c(O)c(O)c1 [Ethyl gallate] | 0 copies/ml | 0 copies/ml | no HPV 6/11 or HPV 16/18 was detected | HPV 6/11 detected by FQ-PCR (in words) (HPV 6/11): no HPV 6/11 or HPV 16/18 was detected |
| O=C(O)c1ccccc1O [Salicylic acid, salicylic acid, reference compound] | 5.50 × 10^5 copies/ml | 2.60 × 10^4 copies/ml | – | – |
| O=C(O)c1ccc(O)cc1O [2,4-dihydroxybenzoic acid] | 1.60 × 10^4 copies/ml | 4.60 × 10^3 copies/ml | – | – |
